According to ChEMBL document CHEMBL1141434, “Chlorocyclinones A-D, chlorinated angucyclinones from Streptomyces sp. strongly antagonizing rosiglitazone-induced PPAR-gamma activation” (J Nat Prod, 2007):

Tests used:
[1] = target: T1, Peroxisome proliferator-activated receptor gamma (Homo sapiens, UniProt P37231); test: Antagonist activity at human PPARgamma receptor in CHO-K1 cells assessed as rosiglitazone-induced receptor activation by cell based reporter assay; assay type: functional
T1 sequence (P37231 whole entry): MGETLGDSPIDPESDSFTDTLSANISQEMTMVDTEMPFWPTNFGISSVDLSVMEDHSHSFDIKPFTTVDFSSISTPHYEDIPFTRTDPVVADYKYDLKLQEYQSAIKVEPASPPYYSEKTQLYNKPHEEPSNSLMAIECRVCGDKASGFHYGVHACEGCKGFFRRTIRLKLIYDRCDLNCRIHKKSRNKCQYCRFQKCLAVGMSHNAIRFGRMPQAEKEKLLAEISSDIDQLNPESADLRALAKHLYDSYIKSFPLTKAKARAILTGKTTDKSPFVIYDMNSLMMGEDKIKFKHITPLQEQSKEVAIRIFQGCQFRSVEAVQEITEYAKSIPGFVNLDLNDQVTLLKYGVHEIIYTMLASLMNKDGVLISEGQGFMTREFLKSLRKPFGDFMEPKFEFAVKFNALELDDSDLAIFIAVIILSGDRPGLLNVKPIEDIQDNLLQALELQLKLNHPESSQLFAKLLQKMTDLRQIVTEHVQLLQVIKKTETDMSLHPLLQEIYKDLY

[2] = target: T1, Peroxisome proliferator-activated receptor gamma; test: Displacement of [3H]rosiglitazone from human PPARgamma receptor by scintillation proximity assay
[3] = target: T1, Peroxisome proliferator-activated receptor gamma; test: Antagonist activity at human PPARgamma receptor assessed as rosiglitazone-induced receptor activation by alphascreen assay; assay type: functional

SMILES | IC50 [1] [nM] | EC50 [2] [nM] | IC50 [3] [nM]
COC(=O)c1cc2c(c(O)c1C(C)OC(C)=O)C(=O)c1c(O)cc3cc(C)c(Cl)c(OC)c3c1C2=O (configuration not stated) [CHLOROCYCLINONE B] | 1400 | 160 | 100
COC(=O)c1cc2c(c(O)c1C(C)OC(=O)CO)C(=O)c1c(O)cc3cc(C)c(Cl)c(OC)c3c1C2=O (configuration not stated) [CHLOROCYCLINONE C] | 600 | 130 | 90
CCc1c(C(=O)OC)cc2c(c1O)C(=O)c1c(O)cc3cc(C)c(Cl)c(OC)c3c1C2=O [CHLOROCYCLINONE A] | 7000 | 180 | 160
COc1c(Cl)c(C)cc2cc(O)c3c(c12)C(=O)c1cc2c(c(O)c1C3=O)C(C)OC2=O (configuration not stated) [CHLOROCYCLINONE D] | 4400 | 260 | 320
